SMILES strings stand for the structures.

This series is described as follows: Evaluation of solubility of organic compound in hexane, toluene and dichloromethane. As to conditions: room temperature; for solubility compared with Compound 9: summary of Table 3, toluene, dichloromethane. Format: physicochemical. The method, then:
Evaluation of Solubility of Organic Compound
The solubility in hexane, toluene and dichloromethane was measured for the compounds of Synthesis Example 9, and Comparative Synthesis Examples 2 and 3.

With `Cc1ccc(C)c(N(c2cc(C(C)(C)C)ccc2C)c2ccc3ccc4c(N(c5cc(C)ccc5C)c5cc(C(C)(C)C)ccc5C)ccc5ccc2c3c54)c1` [Compound 1-B], the solubility in hexane result is listed as “Insoluble” and the “solubility compared with Compound 9” value is on record as “significantly lower solubility than Compound 9”.
On the same counts, the results for `CCc1cc(N(c2cc(C)ccc2C)c2cc(C(C)(C)C)ccc2C)c2ccc3c(CC)cc(N(c4cc(C)ccc4C)c4cc(C(C)(C)C)ccc4C)c4ccc1c2c34` [Compound 1-C] are “Insoluble” and “significantly lower solubility than Compound 9”.
